According to PMC6773697, “Antileukemic activity of novel adenosine derivatives” (Scientific Reports, 2019):

Assays:
Type in all cases: cell-based, human
[1] = test system: caspase-3/7 in HL-60 cells; experiment: Caspase 3/7 assay, HL-60; details: HL-60, 48 h
Method: The activities of caspases-3 and −7 were estimated with CellEvent™ Caspse-3/7 Green Detection Reagent (Thermo Fisher Scientific) according to the manufacturer’s protocol. The cells were seeded on 96-well plates (15 × 10^3/ well) and 24 h later, incubated with the appropriate drugs for 24 h or 48 h. The cells were fixed by adding a final concentration of 4% paraformaldehyde solution (10 min, room temperature). Cells were labeled with CellEvent™Caspase-3/7 Green Detection Reagent (5 µM), followed by Hoechst 33342 (5 µg/ml) for 15 minutes in complete medium3. Caspase-3/7 Green Detection Reagent was diluted into PBS with 5% FBS to avoid fluorescence background. After activation of caspase-3/7 in apoptotic cells, the DEVD peptide was cleaved, enabling the dye to bind DNA, which produced a bright, fluorogenic response with absorption/emission maxima of 502/530 nm according with manufacture protocol. Fluorescence intensity was measured using a Fluoroskan Ascent FL plate reader (Labsystem, Sweden). Cysteine protease activity was expressed as a ratio of fluorescence of the drug-treated samples to the corresponding untreated controls (taken as 100%). In some experimental variants, cells were preincubated for 1 h with VE-821 (10 µM) or Z-FA-FMK (caspas-3 inhibitor, 0.5 µM) to confirm that the fluorescence observed in both control and drug-treated cells was due to the presence of caspase-3/7 in samples. The caspase 3/7 signal was normalized to the Hoechst 33342 staining intensity to account for differences in cell seeding density (description in: Intracellular calcium assay section).

HL-60 cells = experiment: Alkaline comet assay, HL-60; details: HL-60, 48 h
Method: (§1) Single cell gel electrophoresis (comet assay) was used to detect alkali labile sites, single and double DNA strand breaks, and cross-links induced by genotoxic agents. After electrophoresis and gel staining with 4,6-diamidino-2-phenylindole (DAPI), the released DNA was visible under a fluorescence microscope as a characteristic comet tail. The cells were plated on 24-well plates (20,000 cells/mL) and treated with CLA, CLA-FMOR, CLA-FPIP, or CLA-FPIR at the indicated concentrations for 2, 24, and 48 h at 37 °C. Some cells were preincubated with an ATR kinase inhibitor (VE-821) for 1 h at 37 °C before adding the tested compounds. Next, cells were collected into Eppendorf tubes and rinsed with PBS. Then, cells were suspended in 0.75% low melting point (LMP) agarose dissolved in PBS (pH 7.4) and placed on microscope slides precoated with 0.5% normal melting point (NMP) agarose. […] The slides were stored in a wet chamber at 4 °C and analyzed under a fluorescence microscope. Fifty randomly selected cells from each slide were measured using image analysis (Nikon, Japan) attached to a COHU 4910 video camera, which was equipped with a UV-1 filter block consisting of an excitation filter (359 nm) and a barrier filter (461 nm) connected to the image analysis system Lucia-Comet v. […] In the samples preincubated with VE-821, the level of DNA damage associated with the ATR kinase was determined.

dCK in HL-60 cells = experiment: Deoxycytidine kinase activity, HL-60; details: HL-60, 24 h incubation
Method: Deoxycytidine kinase activity was measured in accordance with the manufacturer’s protocol. The cells, at final concentration were plated at 1 × 10^6 cells per 24-well plates and cultured with the tested compounds for 24 h. Some cells were preincubated with an ATR kinase inhibitor (VE-821) for 1 h at 37 °C before adding the tested compounds. After drug treatment, the cells were washed with PBS and resuspended in an ice-cold cytosol extraction buffer containing 1 mM phenylmethylsulfonyl fluoride (PMSF) and a protease inhibitor cocktail. The cell lysate was centrifuged at 10,000 × g for 30 min at 4 °C. The protein concentration was determined using the Bradford method. The supernatant (cytosolic fraction) was collected and stored at −80 °C. The clarified cytoplasm extracts, dCK standards, and blank control were added to the appropriate microtiter plate wells with a biotin-conjugated polyclonal antibody prepared specifically for dCK. Avidin conjugated to horseradish peroxidase (HRP) was added to each microplate well and incubated. Then, a TMB substrate solution was added to the plate. […] The enzyme-substrate reaction was terminated by addition of a sulfuric acid solution. The color change was measured spectrophotometrically at a wavelength of 450 nm using a microplate reader (BioTek).

MOLT-4 cells = experiment: Comet assay with proteinase K post-treatment (DNA-protein cross-links), MOLT-4; details: MOLT-4, 24 h
Method: as §1, with “determined. […]” for “determined.”

Row | Structure (SMILES) | caspase-3/7 level [1] | DNA damage relative to that induced by the unmodified drug (HL-60 cells) | DNA fragmentation, percentage of the DNA in the comet tail (HL-60 cells; 130 nM) | dCK activity (dCK in HL-60 cells) | percentage of DNA in the comet tail after proteinase K (MOLT-4 cells)
1 | OC[C@H]1O[C@@H](n2cnc3c(N=CN4CCCC4)nc(Cl)nc32)C[C@@H]1O [CLA-FPIR, [6-deamino-6-(N′, N′-l′, 4′-tetramethyleneformamidino)] cladribine] | highest changes | – | – | – | –
2 | OC[C@H]1O[C@@H](n2cnc3c(N=CN4CCOCC4)nc(Cl)nc32)C[C@@H]1O [CLA-FMOR, [6-deamino-6-(N′, N′-3′-oxa-1′, 5′-pentamethyleneformamidine)] cladribine] | – | two-fold higher | 24% | highest dCK activity | increase in the percentage of DNA in the comet tail
